Results published in ChEMBL document CHEMBL1201862, “PubChem BioAssay data set” (2004).
Calls of active or inactive are those of the source.

Assays:
[1] = target: NAD-dependent protein deacylase sirtuin-5, mitochondrial (Homo sapiens, UniProt Q9NXA8); assay: sirtuin-5 deacylation blockers, concentration series – biochemical, fluorescence imaging, cherry-pick, set 5, dose response (AID 720591);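 note: desuccinylation of succinyl peptide AMC substrate read as fluorescence after trypsin release; potency of inhibitors that lower fluorescence and may act on trypsin instead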
NAD-dependent protein deacylase sirtuin-5, mitochondrial, sequence (Q9NXA8 whole entry): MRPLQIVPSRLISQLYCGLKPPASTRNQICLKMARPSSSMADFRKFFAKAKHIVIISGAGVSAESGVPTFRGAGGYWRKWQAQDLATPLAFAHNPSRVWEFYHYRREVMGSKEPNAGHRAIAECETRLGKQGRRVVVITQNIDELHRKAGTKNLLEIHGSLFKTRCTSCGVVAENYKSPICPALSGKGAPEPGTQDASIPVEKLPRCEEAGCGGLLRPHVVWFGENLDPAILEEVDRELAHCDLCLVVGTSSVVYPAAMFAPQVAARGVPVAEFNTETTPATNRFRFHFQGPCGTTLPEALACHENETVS

Bcl-2-related protein A1 [2] = target: T1, Bcl-2-related protein A1 (Mus musculus, UniProt Q07440); assay: Bfl-1 binding inhibitors, SAR follow-up, biochemical, fluorescence polarization (AID 1070)
T1 sequence (Q07440 whole entry): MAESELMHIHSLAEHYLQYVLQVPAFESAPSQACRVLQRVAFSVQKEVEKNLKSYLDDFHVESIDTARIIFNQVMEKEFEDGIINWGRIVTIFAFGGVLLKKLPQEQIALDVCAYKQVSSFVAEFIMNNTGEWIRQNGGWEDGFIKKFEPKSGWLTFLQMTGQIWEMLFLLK

Caspase-3 = target: T2, Caspase-3 (Homo sapiens, UniProt P42574); format: functional;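 note: Dose-response selectivity test against caspase-3 for candidate inhibitors of sentrin-specific proteases (SENPs)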
T2 sequence (P42574 whole entry): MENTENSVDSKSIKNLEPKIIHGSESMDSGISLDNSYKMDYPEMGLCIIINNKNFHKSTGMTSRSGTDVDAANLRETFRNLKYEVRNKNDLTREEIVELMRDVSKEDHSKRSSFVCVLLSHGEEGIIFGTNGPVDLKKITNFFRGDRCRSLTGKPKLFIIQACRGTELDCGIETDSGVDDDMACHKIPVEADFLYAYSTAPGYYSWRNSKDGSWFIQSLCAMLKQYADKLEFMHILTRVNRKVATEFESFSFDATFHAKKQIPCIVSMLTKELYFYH

Bcl-2-related protein A1 [3] = target: T1, Bcl-2-related protein A1; assay: small-molecule antagonists of Bfl-1/BH3 interaction – biochemical, TR-FRET, mouse Bfl-1, confirmation (AID 621);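 note: TR-FRET binding of GST-Bfl-1 to FITC-labelled Bid peptide via terbium antibody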
[4] = target: T3, Sentrin-specific protease 6 (Homo sapiens, UniProt Q9GZR1); format: functional;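 note: Luminescence-based dose-response confirmatory assay of SENP6 inhibition, following up an ultra-high-throughput screen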
T3 sequence (Q9GZR1 whole entry): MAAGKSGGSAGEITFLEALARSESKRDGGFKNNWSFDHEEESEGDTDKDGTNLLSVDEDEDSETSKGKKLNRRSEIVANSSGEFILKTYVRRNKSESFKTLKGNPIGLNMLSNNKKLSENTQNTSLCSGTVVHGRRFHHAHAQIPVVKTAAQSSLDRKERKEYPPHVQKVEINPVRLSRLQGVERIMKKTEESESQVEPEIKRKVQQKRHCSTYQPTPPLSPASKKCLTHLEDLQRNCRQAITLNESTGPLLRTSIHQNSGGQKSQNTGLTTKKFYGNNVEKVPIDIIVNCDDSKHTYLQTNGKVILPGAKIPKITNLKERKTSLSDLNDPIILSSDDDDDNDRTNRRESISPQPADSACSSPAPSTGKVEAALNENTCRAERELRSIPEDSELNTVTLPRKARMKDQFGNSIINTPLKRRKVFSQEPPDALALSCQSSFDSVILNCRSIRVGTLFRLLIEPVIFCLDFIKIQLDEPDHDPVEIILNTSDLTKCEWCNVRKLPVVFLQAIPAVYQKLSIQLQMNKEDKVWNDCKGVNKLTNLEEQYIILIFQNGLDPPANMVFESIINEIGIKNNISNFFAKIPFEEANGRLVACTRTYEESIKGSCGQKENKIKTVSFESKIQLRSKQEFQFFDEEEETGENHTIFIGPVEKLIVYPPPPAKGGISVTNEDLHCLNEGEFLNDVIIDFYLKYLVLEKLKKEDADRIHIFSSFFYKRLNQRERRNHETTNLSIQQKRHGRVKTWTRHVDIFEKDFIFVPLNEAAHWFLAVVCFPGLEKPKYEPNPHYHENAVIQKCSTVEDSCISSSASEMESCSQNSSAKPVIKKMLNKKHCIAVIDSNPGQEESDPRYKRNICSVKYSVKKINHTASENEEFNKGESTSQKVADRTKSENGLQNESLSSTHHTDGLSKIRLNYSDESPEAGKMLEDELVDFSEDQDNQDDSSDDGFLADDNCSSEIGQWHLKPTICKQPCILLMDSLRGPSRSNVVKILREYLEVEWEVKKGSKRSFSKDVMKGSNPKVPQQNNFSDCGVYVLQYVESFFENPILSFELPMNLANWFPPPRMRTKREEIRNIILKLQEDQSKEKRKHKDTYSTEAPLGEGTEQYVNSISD

[5] = target: T4, Sentrin-specific protease 7 (Homo sapiens, UniProt Q9BQF6); format: functional;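 note: Luminescence-based dose-response confirmation of ultra-high-throughput screening hits, measuring inhibition of SENP7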
T4 sequence (Q9BQF6 whole entry): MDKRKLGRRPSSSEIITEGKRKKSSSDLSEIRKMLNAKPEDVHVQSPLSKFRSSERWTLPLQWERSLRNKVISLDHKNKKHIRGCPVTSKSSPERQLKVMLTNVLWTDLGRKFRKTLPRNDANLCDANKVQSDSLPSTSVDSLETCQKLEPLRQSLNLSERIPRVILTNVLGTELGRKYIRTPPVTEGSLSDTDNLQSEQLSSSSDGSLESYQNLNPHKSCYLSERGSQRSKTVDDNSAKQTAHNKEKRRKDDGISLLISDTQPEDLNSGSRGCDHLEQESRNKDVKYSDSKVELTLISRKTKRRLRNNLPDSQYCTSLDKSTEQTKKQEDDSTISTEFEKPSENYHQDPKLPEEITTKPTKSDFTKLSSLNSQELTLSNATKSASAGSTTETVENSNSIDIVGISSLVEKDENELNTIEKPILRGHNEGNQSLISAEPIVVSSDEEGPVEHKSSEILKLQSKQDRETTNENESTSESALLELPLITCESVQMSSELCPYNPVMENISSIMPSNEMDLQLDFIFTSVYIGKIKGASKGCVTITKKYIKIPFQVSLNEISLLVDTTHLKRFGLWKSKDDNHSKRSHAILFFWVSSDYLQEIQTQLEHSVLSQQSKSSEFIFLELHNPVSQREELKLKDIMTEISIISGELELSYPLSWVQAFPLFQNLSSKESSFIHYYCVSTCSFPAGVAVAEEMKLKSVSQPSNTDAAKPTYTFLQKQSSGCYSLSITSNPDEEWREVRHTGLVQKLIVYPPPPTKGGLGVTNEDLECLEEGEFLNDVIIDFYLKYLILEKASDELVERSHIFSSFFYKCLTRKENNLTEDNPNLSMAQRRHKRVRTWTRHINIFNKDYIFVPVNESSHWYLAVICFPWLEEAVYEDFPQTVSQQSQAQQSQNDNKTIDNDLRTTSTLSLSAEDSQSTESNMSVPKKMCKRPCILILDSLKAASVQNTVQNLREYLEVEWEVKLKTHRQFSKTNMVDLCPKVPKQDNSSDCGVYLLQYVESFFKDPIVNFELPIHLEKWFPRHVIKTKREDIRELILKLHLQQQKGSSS

[6] = target: T5, Sentrin-specific protease 8 (Homo sapiens, UniProt Q96LD8); format: functional;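 note: luminescence read-out of SENP8 inhibition, dose-response confirmation following an ultra-high-throughput screen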
T5 sequence (Q96LD8 whole entry): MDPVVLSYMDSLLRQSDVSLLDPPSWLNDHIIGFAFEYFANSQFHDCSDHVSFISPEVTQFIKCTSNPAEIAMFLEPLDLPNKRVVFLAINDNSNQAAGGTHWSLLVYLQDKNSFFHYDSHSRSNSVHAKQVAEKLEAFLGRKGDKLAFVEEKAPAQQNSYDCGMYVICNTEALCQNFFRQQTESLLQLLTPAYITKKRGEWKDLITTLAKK

[7] = target: Glyceraldehyde-3-phosphate dehydrogenase (Homo sapiens, UniProt P04406)
Glyceraldehyde-3-phosphate dehydrogenase, sequence (P04406 whole entry): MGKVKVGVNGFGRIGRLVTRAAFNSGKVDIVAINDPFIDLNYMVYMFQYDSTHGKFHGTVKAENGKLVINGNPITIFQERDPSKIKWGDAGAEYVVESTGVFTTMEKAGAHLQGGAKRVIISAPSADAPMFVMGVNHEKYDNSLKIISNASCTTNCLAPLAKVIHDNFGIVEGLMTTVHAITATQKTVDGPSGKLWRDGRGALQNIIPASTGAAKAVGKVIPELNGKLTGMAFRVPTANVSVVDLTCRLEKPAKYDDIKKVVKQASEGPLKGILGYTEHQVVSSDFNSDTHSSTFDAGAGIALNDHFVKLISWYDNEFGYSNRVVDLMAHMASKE

[8] = target: T6, Glutathione-S-transferase (Schistosoma japonicum, UniProt Q26513); assay: GST-antibody interaction or FRET quenching – biochemical, TR-FRET, artefact control for Vif-APOBEC3G degradation inhibitor project, dose response (AID 1117362); format: functional
T6 sequence (Q26513 whole entry): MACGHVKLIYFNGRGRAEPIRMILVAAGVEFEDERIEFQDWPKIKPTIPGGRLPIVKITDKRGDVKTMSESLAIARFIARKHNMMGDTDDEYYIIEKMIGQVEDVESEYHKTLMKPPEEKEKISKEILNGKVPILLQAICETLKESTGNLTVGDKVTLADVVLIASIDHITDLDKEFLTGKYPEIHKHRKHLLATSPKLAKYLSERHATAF

[9] = target: Glucose-6-phosphate 1-dehydrogenase (Homo sapiens, UniProt P11413); assay: inhibition of Homo sapiens G6PD, dose series – biochemical, fluorescence, selectivity assay for P. falciparum G6PD inhibitor project, dose response (AID 504792); format: functional
Glucose-6-phosphate 1-dehydrogenase, sequence (P11413 whole entry): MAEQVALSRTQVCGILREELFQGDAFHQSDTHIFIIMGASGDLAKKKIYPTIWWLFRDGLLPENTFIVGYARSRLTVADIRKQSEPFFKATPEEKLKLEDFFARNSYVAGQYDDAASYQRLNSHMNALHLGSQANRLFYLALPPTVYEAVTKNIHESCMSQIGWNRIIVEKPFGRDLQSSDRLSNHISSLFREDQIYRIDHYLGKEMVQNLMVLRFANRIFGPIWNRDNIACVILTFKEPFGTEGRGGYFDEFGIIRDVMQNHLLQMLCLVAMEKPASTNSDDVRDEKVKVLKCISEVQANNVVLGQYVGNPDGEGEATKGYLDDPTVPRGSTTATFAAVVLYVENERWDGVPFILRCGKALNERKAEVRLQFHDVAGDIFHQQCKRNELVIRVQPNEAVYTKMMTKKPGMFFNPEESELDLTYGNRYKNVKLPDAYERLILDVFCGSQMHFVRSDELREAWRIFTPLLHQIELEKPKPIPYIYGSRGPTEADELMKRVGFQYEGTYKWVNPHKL

Large T antigen = Large T antigen (Simian virus 40, UniProt P03070); format: functional, Betapolyomavirus macacae;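 note: Confirmatory-stage PubChem screen for compounds that inhibit SV40 T antigen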
Large T antigen, sequence (P03070 whole entry): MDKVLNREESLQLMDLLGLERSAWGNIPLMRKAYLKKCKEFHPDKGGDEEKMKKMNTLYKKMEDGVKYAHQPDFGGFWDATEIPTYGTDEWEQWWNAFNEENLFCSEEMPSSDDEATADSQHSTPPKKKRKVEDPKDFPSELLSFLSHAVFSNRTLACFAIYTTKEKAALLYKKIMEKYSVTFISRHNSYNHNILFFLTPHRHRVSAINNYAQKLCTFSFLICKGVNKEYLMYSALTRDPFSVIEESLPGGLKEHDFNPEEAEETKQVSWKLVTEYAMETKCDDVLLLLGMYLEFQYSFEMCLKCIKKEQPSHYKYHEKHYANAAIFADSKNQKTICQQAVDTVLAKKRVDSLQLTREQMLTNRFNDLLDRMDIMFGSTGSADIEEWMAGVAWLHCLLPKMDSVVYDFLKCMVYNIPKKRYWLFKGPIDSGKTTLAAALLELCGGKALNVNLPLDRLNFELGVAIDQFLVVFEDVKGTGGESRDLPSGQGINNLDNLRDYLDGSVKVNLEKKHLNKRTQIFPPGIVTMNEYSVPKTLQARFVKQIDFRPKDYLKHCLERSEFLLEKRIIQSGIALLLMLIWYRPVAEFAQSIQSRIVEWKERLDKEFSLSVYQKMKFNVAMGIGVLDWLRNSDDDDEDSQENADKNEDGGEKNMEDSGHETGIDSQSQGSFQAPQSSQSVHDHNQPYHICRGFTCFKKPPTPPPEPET

Caspase-6 = target: T7, Caspase-6 (Homo sapiens, UniProt P55212); assay: inhibition of CASP6 peptide cleavage – biochemical, VEID-R110 fluorescence, cherry-pick, dose response (AID 720632)
T7 sequence (P55212 whole entry): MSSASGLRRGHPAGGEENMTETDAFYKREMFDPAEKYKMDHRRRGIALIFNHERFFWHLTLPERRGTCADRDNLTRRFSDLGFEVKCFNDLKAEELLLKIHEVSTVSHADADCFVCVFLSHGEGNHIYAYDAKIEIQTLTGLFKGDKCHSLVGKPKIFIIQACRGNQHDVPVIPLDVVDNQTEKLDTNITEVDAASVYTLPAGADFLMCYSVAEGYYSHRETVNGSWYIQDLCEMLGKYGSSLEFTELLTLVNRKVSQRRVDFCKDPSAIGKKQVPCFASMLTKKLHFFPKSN

[10] = target: Mitogen-activated protein kinase 10 (Homo sapiens, UniProt P53779); assay: Dose response biochemical screening assay for inhibitors of c-Jun N-Terminal Kinase 3 (JNK3). [Related pubchem assays: 746 ]
Mitogen-activated protein kinase 10, sequence (P53779 whole entry): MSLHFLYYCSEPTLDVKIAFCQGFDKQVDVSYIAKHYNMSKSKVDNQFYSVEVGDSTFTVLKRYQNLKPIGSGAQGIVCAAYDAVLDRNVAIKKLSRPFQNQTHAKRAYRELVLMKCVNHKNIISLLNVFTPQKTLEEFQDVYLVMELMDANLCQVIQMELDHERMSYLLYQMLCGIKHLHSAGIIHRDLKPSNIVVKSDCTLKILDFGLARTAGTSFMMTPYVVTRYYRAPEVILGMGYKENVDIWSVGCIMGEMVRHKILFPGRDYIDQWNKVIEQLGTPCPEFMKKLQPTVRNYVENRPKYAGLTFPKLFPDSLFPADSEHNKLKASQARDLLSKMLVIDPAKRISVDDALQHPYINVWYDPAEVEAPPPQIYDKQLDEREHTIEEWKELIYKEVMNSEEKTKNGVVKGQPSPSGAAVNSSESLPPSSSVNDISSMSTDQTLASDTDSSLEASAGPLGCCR

[11] = target: T8, Rac GTPase-activating protein 1 (Homo sapiens, UniProt Q9H0H5); assay: blockers of MgcRacGAP-driven Rac1 GTP hydrolysis – biochemical, ADP Hunter fluorescence, primary and confirmatory, confirmation (AID 624330); format: functional
T8 sequence (Q9H0H5 whole entry): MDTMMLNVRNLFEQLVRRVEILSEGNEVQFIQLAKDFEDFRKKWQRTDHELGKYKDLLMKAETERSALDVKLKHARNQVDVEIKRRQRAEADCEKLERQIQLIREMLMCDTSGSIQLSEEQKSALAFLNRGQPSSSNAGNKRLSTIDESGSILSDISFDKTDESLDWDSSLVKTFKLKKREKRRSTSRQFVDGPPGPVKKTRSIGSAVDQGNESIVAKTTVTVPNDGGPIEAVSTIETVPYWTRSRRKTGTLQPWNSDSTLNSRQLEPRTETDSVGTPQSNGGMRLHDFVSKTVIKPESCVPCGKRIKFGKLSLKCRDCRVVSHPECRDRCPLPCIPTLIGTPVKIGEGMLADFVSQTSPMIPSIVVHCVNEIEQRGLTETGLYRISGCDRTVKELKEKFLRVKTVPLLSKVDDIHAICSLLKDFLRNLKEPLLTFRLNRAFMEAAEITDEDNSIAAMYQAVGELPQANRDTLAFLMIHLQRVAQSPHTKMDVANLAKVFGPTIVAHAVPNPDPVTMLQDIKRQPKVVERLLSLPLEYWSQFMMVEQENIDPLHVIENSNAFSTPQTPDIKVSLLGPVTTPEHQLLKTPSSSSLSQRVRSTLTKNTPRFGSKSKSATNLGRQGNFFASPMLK

[12] = target: E3 ubiquitin-protein ligase Mdm2 (Homo sapiens, UniProt Q00987); assay: MDM2-luc reporter signal enhancers, multi-concentration potency testing, MDM2 ubiquitin-protein ligase inhibitor program, whole-cell format, luminescence detection, 384-well microplate (AID 1394); format: functional;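 note: MDM2 E3 inhibitors raise luminescence so EC50 is for signal enhancement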
E3 ubiquitin-protein ligase Mdm2, sequence (Q00987 whole entry): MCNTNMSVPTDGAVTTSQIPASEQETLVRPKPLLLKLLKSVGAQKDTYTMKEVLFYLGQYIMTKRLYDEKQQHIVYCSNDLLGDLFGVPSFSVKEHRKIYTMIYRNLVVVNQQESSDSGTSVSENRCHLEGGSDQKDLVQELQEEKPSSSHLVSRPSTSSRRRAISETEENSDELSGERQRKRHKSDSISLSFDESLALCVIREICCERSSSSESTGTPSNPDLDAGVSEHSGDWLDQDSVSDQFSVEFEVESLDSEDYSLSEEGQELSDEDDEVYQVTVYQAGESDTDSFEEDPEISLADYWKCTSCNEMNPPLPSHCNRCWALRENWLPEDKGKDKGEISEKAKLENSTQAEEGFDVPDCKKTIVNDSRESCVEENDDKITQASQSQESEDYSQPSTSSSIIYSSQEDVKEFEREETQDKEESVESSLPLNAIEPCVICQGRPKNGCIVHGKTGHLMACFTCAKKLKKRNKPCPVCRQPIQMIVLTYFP

HEK293 = assay: EBV LMP1 TES2 canonical NF-kB signalling blockers – cell-based, HEK293, luciferase, cherry-pick, dose response (AID 588343); format: functional; conditions: Homo sapiens

Cc1ccc(C)c(N2CCN(S(=O)(=O)c3ccc4c(c3)CC(=O)N4C)CC2)c1
AC50 [1]: > 30 µM (inactive)

O=C(C1Cc2ccccc2CN1S(=O)(=O)c1ccc(F)cc1)N1CCOCC1 (stereo unspecified)
AC50 [1]: 23.6 µM (active)

Cc1ccc(-n2nnc(-c3cccnc3Cl)n2)cc1
IC50 (Bcl-2-related protein A1 [2]): > 100 µM (not active) | IC50 (Caspase-3): 9.03 µM (active) | IC50 (Bcl-2-related protein A1 [3]): > 100 µM (not active) | IC50 [4]: 4.03 µM (active) | IC50 [5]: 3.18 µM (active) | IC50 [6]: > 100 µM (inactive)

CCN1CCN(C2=C(Cl)C(=O)N(c3ccc(Cl)c(Cl)c3)C2=O)CC1
IC50 (Bcl-2-related protein A1 [2]): 1.67 µM (active) | IC50 [7]: > 100 µM (not active) | IC50 (Bcl-2-related protein A1 [3]): 0.97 µM (active)

COCCn1nnnc1C(c1cc2cc(OC)c(OC)cc2[nH]c1=O)N1CCN(c2ccc(O)cc2)CC1 (stereo unspecified)
IC50 [8]: > 100 µM (active) | IC50 [9]: > 80 µM (inactive) | IC50 (Large T antigen): 6.67 µM (active)

CC1Cc2ccccc2N1Cc1cc(=O)n2ccsc2n1 (stereo unspecified)
IC50 [8]: > 100 µM (active)

Cc1ccc(NC(=O)c2noc3c2CCC3)cc1C
AC50 (Caspase-6): 5.83 µM (active)

CCC(C)N1C(=O)N(C)C2NC(=O)NC21 (stereo unspecified)
AC50 [1]: 2.23 µM (active)

CN(C)C1=C(Cl)C(=O)N(c2cccc([N+](=O)[O-])c2)C1=O
IC50 (Bcl-2-related protein A1 [2]): 2.3 µM (active) | IC50 [7]: > 100 µM (not active) | IC50 (Bcl-2-related protein A1 [3]): > 100 µM (not active)

COC(=O)c1ccccc1NC(=O)COC(=O)CSCC(=O)N1CCOCC1
IC50 [10]: > 93.1 µM (not active)

O=c1c2ccccc2nc(-c2ccco2)n1CCCn1ccnc1
IC50 [10]: > 31 µM (not active)

CC(=O)N1CCN(c2ccc(NCc3ccc4c(c3)OCO4)cc2)CC1
IC50 [11]: 12.9 µM (active) | IC50 [8]: 16.3 µM (active)

CC(C)c1ccc(OCc2cccc(C(=O)N/N=C/c3cccnc3)c2)cc1
EC50 [12]: 0.02 µM (active) | AC50 (HEK293): 0.98 µM (active)
